Measurements reported in US5622942A, “Percutaneous absorptive anesthetic” (priority 1993, dated 1997).

Assays:
[1] = Lidocaine blood concentration after application of ointment to the rat abdomen (fluorescence polarization immunoassay); type: in vivo, Wistar rat
Excerpt: (1) Experimental Animal Wistar rat a. Aqueous gel ointment containing 2% of lidocaine. b. Aqueous gel ointment containing 10% of lidocaine. c. Aqueous gel ointment in (b) containing 3% of compound 4. e. Aqueous gel ointment in (a) containing 3% of compound 4. […] Group with an ointment a applied. Group with an ointment e applied. […] Group with an ointment c applied. Group with 3% Azone (Trademark registered)--10% lidocaine aqueous gel-ointment applied. […] In these groups, the rats had their body portion covered with a polyethylene food wrapping sheet at an area where an ointment was applied, and sealed by means of transparent tape. Then, a blood was withdrawn through a cannula which had been inserted into the carotid. The blood was pretreated with a heparin and separated by means of centrifugal separator to obtain blood plasma. A fluorescence polarization immunoassay was used to determine the concentration of the lidocaine in the blood.

skin [2] = experiment: Preparatory pinprick test of skin anesthesia effect, 3% absorption promoter and 2% lidocaine aqueous gel-ointment; type: in vivo, healthy adult (human); conditions: for skin anesthesia effect, in words: pinprick, up to 4 hours after application; for time at which effect of the skin anesthesia began / time of complete skin anesthesia: after application, 3% promoter + 2% lidocaine
Procedure: Same as that in the experimental example 1.
A preparatory experiment was carried out to verify the skin anesthesia effect of various lidocaine aqueous gel-ointments when they are applied in the quantity of 0.3 g/4 cm^2.
Pinprick test was carried out to compare results utilizing lidocaine aqueous gel-ointment which was prepared by mixing the ointments d-h, Xylocaine Jelly (Trademark registered, containing 2% lidocaine, made by Fujisawa Pharmaceutical Co., Ltd.), Azone, a known percutaneous absorption promoter, sodium caprate (to be indicated as Cap Na hereinafter) and isopropyl myristate (to be indicated as IPM hereinafter).
The skin over which various ointments were applied was pierced several times using a 26 gauge intradermal needle at the time of 1, 1.5, 2, 3 and 4 hours after the application, and the degree of pain felt by the adult was evaluated according to a criterion given below.
++ No pain felt at the area where the ointment was applied.
+ Pain felt at some portions.
- Pain felt at that area.

[3] = Acute toxic examination (LD50), oral, rat; conditions: in vivo
Procedure: The results of acute toxic examination (LD50) which was carried out with the rat through the oral dose of the compound were follows.

skin [4] = experiment: Double-blind pinprick procedure pain score at the vein puncture area in patients; type: in vivo, patient (human); conditions: ointment c versus ointment b, p<0.05
Procedure: A patient who was to receive an operation.
The sponge was applied over an area in which the vein is punctured in accordance with a double-blind assay method. The area was sealed off with a transparent tape, and the topical reaction and the painless effect occurring on the skin were compared about 1 hour later.
The following pain score was employed as a criterion.
When the pain score was zero, the needle was pierced into the skin about 1.0 mm deep to verify the pain.

SMILES	absorption promoting effect (lidocaine blood concentration) ([1]; rat, in vivo)	skin anesthesia effect, in words (skin [2])	LD50 [3] [mg/kg]	time at which effect of the skin anesthesia began (skin [2]) [h]	time of complete skin anesthesia (skin [2]) [h]	effect in removing the pain of the skin, in words (skin [4])	lidocaine blood concentration ([1]; 2% lidocaine ointments (groups 1 and 2), with or without 3% compound 4)	absorption promoting effect (lidocaine blood concentration) ([1]; 10% lidocaine aqueous gel ointment (groups 3-5), 3% promoter, up to five hours)
CCCCCCCCCCCCN1CCCCCC1=O [Azone, reference compound]	no major effect of improving absorption was found							
CC1(C)[C@@H](OC(=O)c2ccccc2C(=O)O)CC[C@]2(C)[C@H]3CC=C4[C@@H]5C[C@@](C)(COC(=O)c6ccccc6C(=O)O)CC[C@]5(C)CC[C@@]4(C)[C@]3(C)CC[C@@H]12 [Compound 5, 18β-olean-12-ene-3 β, 30-diol-3 β, 30-dihemiphthalate]		skin anesthesia effect substantially equal to that by Azone	1260 to 1520					
CC1(C)[C@@H](OC(=O)c2ccccc2C(=O)O)CC[C@]2(C)[C@H]3C(=O)C=C4[C@@H]5C[C@@](C)(C(=O)O)CC[C@]5(C)CC[C@@]4(C)[C@]3(C)CC[C@@H]12 [Compound 4, Glycyrrhetic acid 3β-monohemiphthalate]			1320	1.5	2	effective in removing the pain of the skin	any significant result was not observed	an absorption promoting effect of the compound 4 was acknowledged
CC1(C)[C@@H](OC(=O)c2ccccc2C(=O)O)CC[C@]2(C)[C@H]3C=CC4=C5C[C@@](C)(COC(=O)c6ccccc6C(=O)O)CC[C@]5(C)CC[C@@]4(C)[C@]3(C)CC[C@@H]12 [Compound 7, Olean-11,13(18)-diene-3 β, 30-diol-3 β, 30-dihemiphthalate]			628 to 793	1.5	2			
CC1(C)[C@@H](OC(=O)CCC(=O)O)CC[C@]2(C)[C@H]3C(=O)C=C4[C@@H]5C[C@@](C)(C(=O)O)CC[C@]5(C)CC[C@@]4(C)[C@]3(C)CC[C@@H]12 [Compound 3, Glycyrrhetic acid 3β-monohemisuccinate]			520	1.5	2			
CC1(C)[C@@H](OC(=O)c2ccccc2C(=O)O)CC[C@]2(C)C3=CC=C4[C@@H]5C[C@@](C)(COC(=O)c6ccccc6C(=O)O)CC[C@]5(C)CC[C@@]4(C)[C@]3(C)CC[C@@H]12 [Compound 6, 18β-olean-9(11), 12-diene-3 β, 30-diol-3 β, 30-dihemiphthalate]		skin anesthesia effect substantially equal to that by Azone	1280 to 1500					
